Measured values: US4921850A, “3-propenylcephem derivative” (Eisai Co., Ltd., priority 1986, dated 1990)
Values after ≈ are worked out from the molar mass of the structure shown. Read-outs that look alike come from different tables or passages of the source.

Key:
Test in all cases: Anti-bacterial activity (MIC), agar dilution
Type in all cases: cell-based
Escher. coli NIHJ = conditions: Escherichia coli, 18 h
Summary of the method: (§1)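 Overnight Mueller-Hinton broth cultures were diluted to about 10^6 CFU/ml and spotted onto Mueller-Hinton agar plates carrying twofold serial dilutions of antibiotic. After 18 hours at 37° C, MIC (μg/ml) was determined by agar dilution.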

Kleb. pneumoniae EK-6 = conditions: Klebsiella pneumoniae, Kleb. pneumoniae EK-6, agar dilution, about 10^6 CFU/ml, 18 hours, 37° C., read-out: MIC
Summary of the method: as §1

[1] = tested on: Morganella morganii EP-14; conditions: 37° C., read-out: MIC
Summary of the method: as §1

Pseud. aeruginosa EP-01 = conditions: Pseudomonas aeruginosa
Summary of the method: as §1

Ser. marcescens ES-75 = conditions: Serratia marcescens, ES75, 18 h
Summary of the method: as §1

Staph. aureus 209-P = conditions: Staphylococcus aureus, 209P, 18 h
Summary of the method: as §1

[2] = Escher. coli NIHJ, agar dilution, about 10^6 CFU/ml, 18 hours, 37° C., read-out: MIC
[3] = Morganella morganii, EP14, 18 h, about 10^6 CFU/ml
[4] = EP01, 18 h, Pseud. aeruginosa EP-01, agar dilution, about 10^6 CFU/ml, 18 hours, 37° C., read-out: MIC
[5] = Ser. marcescens ES-75, agar dilution, about 10^6 CFU/ml, 18 hours, 37° C., read-out: MIC
[6] = Staph. aureus 209-P, agar dilution, about 10^6 CFU/ml, 18 hours, 37° C., read-out: MIC

Row | MIC (Escher. coli NIHJ; [2]) | MIC (Kleb. pneumoniae EK-6; EK6, 18 h) | MIC [1, 3] | MIC (Pseud. aeruginosa EP-01; [4]) | MIC (Ser. marcescens ES-75; [5]) | MIC (Staph. aureus 209-P; [6]) | Structure (SMILES) | MIC (Escher. coli NIHJ) | MIC (Kleb. pneumoniae EK-6; EK6) | MIC ([1]; EP14, about 10^6 CFU/ml, 18 hours) | MIC (Pseud. aeruginosa EP-01; EP01, Pseud. aeruginosa EP-01, agar dilution, about 10^6 CFU/ml, 18 hours, 37° C., read-out: MIC) | MIC (Ser. marcescens ES-75) | MIC (Staph. aureus 209-P) | MIC (Pseud. aeruginosa EP-01; EP01, 18 h)
1 | ≤ 0.025 µg/mL | 0.05 µg/mL (≈ 0.0876 µM) | 0.05 µg/mL (≈ 0.0876 µM) | 1.56 µg/mL (≈ 2.73 µM) | 0.05 µg/mL (≈ 0.0876 µM) | 0.2 µg/mL (≈ 0.35 µM) | CNC(=O)[C@H](C)[N+](C)(C)C/C=C/C1=C(C(=O)[O-])N2C(=O)[C@@H](NC(=O)/C(=N\OCF)c3nsc(N)n3)[C@H]2SC1 [Example 58] |  |  |  |  |  |  | 
2 | ≤ 0.025 µg/mL | ≤ 0.025 µg/mL | ≤ 0.025 µg/mL | 0.8 µg/mL (≈ 1.41 µM) | 0.05 µg/mL (≈ 0.0881 µM) | 0.2 µg/mL (≈ 0.352 µM) | C[N+](C)(C/C=C/C1=C(C(=O)[O-])N2C(=O)[C@@H](NC(=O)/C(=N\OCF)c3nsc(N)n3)[C@H]2SC1)Cc1nnco1 [Example 120, 7β-[2-(5-Amino-1,2,4-thiadiazol-3-yl)-(Z)-2-fluoromethoxyiminoacetamido]-3-[(E)-3-[(1,3,4-oxadiazol-2-yl)methyldimethylammonio]-1-propen-1-yl]-3-cephem-4-carboxylate] |  |  |  |  |  |  | 
3 |  |  |  |  |  |  | CC[N+](C)(C/C=C/C1=C(C(=O)[O-])N2C(=O)[C@@H](NC(=O)/C(=N\OCF)c3nsc(N)n3)[C@H]2SC1)CC(N)=O (stereo partly drawn) [Example 1, 7β-[2-(5-Amino-1,2,4-thiadiazol-3-yl)-(Z)-2-fluoromethoxyiminoacetamido]-3-[(E)-3-(carbamoylmethylethylmethylammonio)-1-propen-1-yl]-3-cephem-4-carboxylate] | ≤ 0.025 µg/mL | ≤ 0.025 µg/mL | ≤ 0.025 µg/mL | 0.8 µg/mL (≈ 1.44 µM) | 0.1 µg/mL (≈ 0.18 µM) | 0.2 µg/mL (≈ 0.359 µM) | 
4 | ≤ 0.025 µg/mL | ≤ 0.025 µg/mL | ≤ 0.025 µg/mL | 0.8 µg/mL (≈ 1.48 µM) | ≤ 0.025 µg/mL | 0.2 µg/mL (≈ 0.37 µM) | CN1CCC[N+]1(C)C/C=C/C1=C(C(=O)[O-])N2C(=O)[C@@H](NC(=O)/C(=N\OCF)c3nsc(N)n3)[C@H]2SC1 (single isomer, unassigned) [Example 122-A, 7β-[2-(5-Amino-1,2,4-thiadiazol-3-yl)-(Z)-2-fluoromethoxyiminoacetamido]-3-[(E)-3-(1,2-dimethyl-1-pyrazolidinio)-1-propen-1-yl]-3-cephem-4-carboxylate] |  |  |  |  |  |  | 
5 | ≤ 0.025 µg/mL | ≤ 0.025 µg/mL | ≤ 0.025 µg/mL | 0.8 µg/mL (≈ 1.34 µM) | ≤ 0.025 µg/mL | 0.2 µg/mL (≈ 0.335 µM) | C[N+]1(C/C=C/C2=C(C(=O)[O-])N3C(=O)[C@@H](NC(=O)/C(=N\OCF)c4nsc(N)n4)[C@H]3SC2)CCCN(C(N)=O)CC1 (stereo partly drawn) [Example 94] |  |  |  |  |  |  | 
6 | ≤ 0.025 µg/mL | ≤ 0.025 µg/mL | ≤ 0.025 µg/mL | 0.8 µg/mL (≈ 1.28 µM) | ≤ 0.025 µg/mL | 0.4 µg/mL (≈ 0.639 µM) | NC(=O)C[N+]1(C/C=C/C2=C(C(=O)[O-])N3C(=O)[C@@H](NC(=O)/C(=N\OCF)c4nsc(N)n4)[C@H]3SC2)CCC(C(N)=O)CC1 (stereo partly drawn) [Example 40] |  |  |  |  |  |  | 
7 | ≤ 0.025 µg/mL | ≤ 0.025 µg/mL | ≤ 0.025 µg/mL | 0.8 µg/mL (≈ 1.43 µM) | ≤ 0.025 µg/mL | 0.4 µg/mL (≈ 0.716 µM) | C[N+](C)(C/C=C/C1=C(C(=O)[O-])N2C(=O)[C@@H](NC(=O)/C(=N\OCF)c3nsc(N)n3)[C@H]2SC1)CC(=O)NO [Example 72] |  |  |  |  |  |  | 
8 | 0.1 µg/mL (≈ 0.179 µM) | 0.1 µg/mL (≈ 0.179 µM) | 0.1 µg/mL (≈ 0.179 µM) | 1.56 µg/mL (≈ 2.79 µM) | 0.2 µg/mL (≈ 0.357 µM) | 0.4 µg/mL (≈ 0.715 µM) | N#CCO/N=C(\C(=O)N[C@@H]1C(=O)N2C(C(=O)[O-])=C(/C=C/C[N+]34CCN(CC3)CC4)CS[C@H]12)c1nsc(N)n1 [Example 157, 7β-[2-(5-Amino-1,2,4-thiadiazol-3-yl)-(Z)-2-cyanomethoxyiminoacetoamido]-3-[(E)-3-(1,4-diazabicyclo[2,2,2]octane-1-io)-1-propen-1-yl]-3-cephem-4-carboxylate] |  |  |  |  |  |  | 
9 | ≤ 0.025 µg/mL | ≤ 0.025 µg/mL | ≤ 0.025 µg/mL | 0.8 µg/mL (≈ 1.43 µM) | 0.05 µg/mL (≈ 0.0897 µM) | 0.2 µg/mL (≈ 0.359 µM) | CC(C)(CO)[N+](C)(C)C/C=C/C1=C(C(=O)[O-])N2C(=O)[C@@H](NC(=O)/C(=N\OCF)c3nsc(N)n3)[C@H]2SC1 [Example 69] |  |  |  |  |  |  | 
10 | ≤ 0.025 µg/mL | ≤ 0.025 µg/mL | ≤ 0.025 µg/mL | 0.8 µg/mL (≈ 1.31 µM) | ≤ 0.025 µg/mL | 0.2 µg/mL (≈ 0.328 µM) | NC(=O)C1=CC[N+](C/C=C/C2=C(C(=O)[O-])N3C(=O)[C@@H](NC(=O)/C(=N\OCF)c4nsc(N)n4)[C@H]3SC2)(CCO)CC1 (stereo partly drawn) [Example 43] |  |  |  |  |  |  | 
11 | ≤ 0.025 µg/mL | ≤ 0.025 µg/mL | ≤ 0.025 µg/mL | 0.4 µg/mL (≈ 0.719 µM) | ≤ 0.025 µg/mL | 0.2 µg/mL (≈ 0.359 µM) | CNC(=O)C[N+](C)(C)C/C=C/C1=C(C(=O)[O-])N2C(=O)[C@@H](NC(=O)/C(=N\OCF)c3nsc(N)n3)[C@H]2SC1 [Example 55] |  |  |  |  |  |  | 
12 | 0.05 µg/mL (≈ 0.0834 µM) | 0.05 µg/mL (≈ 0.0834 µM) | 0.1 µg/mL (≈ 0.167 µM) | 1.56 µg/mL (≈ 2.6 µM) | 0.05 µg/mL (≈ 0.0834 µM) | 0.4 µg/mL (≈ 0.667 µM) | C[N+](C)(C/C=C/C1=C(C(=O)[O-])N2C(=O)[C@@H](NC(=O)/C(=N\OCF)c3nsc(N)n3)[C@H]2SC1)CC(=O)NCC(N)=O [Example 73] |  |  |  |  |  |  | 
13 | ≤ 0.025 µg/mL | ≤ 0.025 µg/mL | ≤ 0.025 µg/mL | 0.8 µg/mL (≈ 1.49 µM) | 0.1 µg/mL (≈ 0.186 µM) | 0.4 µg/mL (≈ 0.743 µM) | CC[N+](C)(CC#N)C/C=C/C1=C(C(=O)[O-])N2C(=O)[C@@H](NC(=O)/C(=N\OCF)c3nsc(N)n3)[C@H]2SC1 (stereo partly drawn) [Example 45] |  |  |  |  |  |  | 
14 | 0.05 µg/mL (≈ 0.0893 µM) | 0.05 µg/mL (≈ 0.0893 µM) | 0.1 µg/mL (≈ 0.179 µM) | 1.56 µg/mL (≈ 2.79 µM) | 0.2 µg/mL (≈ 0.357 µM) | 0.2 µg/mL (≈ 0.357 µM) | N#CCO/N=C(\C(=O)N[C@@H]1C(=O)N2C(C(=O)[O-])=C(/C=C/C[N+]34CCCN3CCC4)CS[C@H]12)c1nsc(N)n1 [Example 161, 7β-[2-(5-Amino-1,2,4-thiadiazol-3-yl)-(Z)-2-cyanomethoxyiminoacetoamido]-3-[(E)-3-(1,5-diazabicyclo[3.3.0]octane-1-io)-1-propen-1-yl]-3-cephem-4-carboxylate] |  |  |  |  |  |  | 
15 | ≤ 0.025 µg/mL | ≤ 0.025 µg/mL | ≤ 0.025 µg/mL | 3.13 µg/mL (≈ 5.86 µM) | ≤ 0.025 µg/mL | 0.1 µg/mL (≈ 0.187 µM) | Nc1ccc[n+](C/C=C/C2=C(C(=O)[O-])N3C(=O)[C@@H](NC(=O)/C(=N\OCF)c4nsc(N)n4)[C@H]3SC2)c1 [Example 103] |  |  |  |  |  |  | 
16 | 0.05 µg/mL | 0.05 µg/mL | 0.05 µg/mL | 1.56 µg/mL | 0.2 µg/mL | 0.4 µg/mL | C[N+]1(C/C=C/C2=C(C(=O)[O-])N3C(=O)[C@@H](NC(=O)/C(=N\OCF)c4nsc(N)n4)[C@H]3SC2)CCN(C=N)CC1.Cl [Example 123, 7β-[2-(5-Amino-1,2,4-thiadiazol-3-yl)-(Z)-2-fluoromethoxyiminoacetamido]-3-[(E)-3-(1-methyl-4-formimidoyl-1-piperazinio)-1-propen-1-yl]-3-cephem-4-carboxylate hydrochloride] |  |  |  |  |  |  | 
17 | ≤ 0.025 µg/mL | ≤ 0.025 µg/mL | ≤ 0.025 µg/mL | 1.56 µg/mL (≈ 2.71 µM) | 0.05 µg/mL (≈ 0.0867 µM) | 0.4 µg/mL (≈ 0.694 µM) | NC(=O)Cc1cccc[n+]1C/C=C/C1=C(C(=O)[O-])N2C(=O)[C@@H](NC(=O)/C(=N\OCF)c3nsc(N)n3)[C@H]2SC1 [Example 82] |  |  |  |  |  |  | 
18 | ≤ 0.025 µg/mL | ≤ 0.025 µg/mL | ≤ 0.025 µg/mL | 0.8 µg/mL (≈ 1.37 µM) | ≤ 0.025 µg/mL | 0.2 µg/mL (≈ 0.342 µM) | Nc1nc(/C(=N/OCF)C(=O)N[C@@H]2C(=O)N3C(C(=O)[O-])=C(/C=C/C[N+]4(CCO)CCC[C@@H]4CO)CS[C@H]23)ns1 (stereo partly drawn) [Example 16] |  |  |  |  |  |  | 

Row | Structure (SMILES) | MIC (Escher. coli NIHJ; [2]) | MIC (Kleb. pneumoniae EK-6; EK6, 18 h) | MIC [1, 3] | MIC (Pseud. aeruginosa EP-01; [4]) | MIC (Ser. marcescens ES-75; [5]) | MIC (Staph. aureus 209-P; [6]) | MIC (Escher. coli NIHJ) | MIC (Kleb. pneumoniae EK-6; EK6) | MIC ([1]; EP14, about 10^6 CFU/ml, 18 hours) | MIC (Pseud. aeruginosa EP-01; EP01, Pseud. aeruginosa EP-01, agar dilution, about 10^6 CFU/ml, 18 hours, 37° C., read-out: MIC) | MIC (Ser. marcescens ES-75) | MIC (Staph. aureus 209-P) | MIC (Pseud. aeruginosa EP-01; EP01, 18 h)
19 | CC(C)(O/N=C(\C(=O)N[C@@H]1C(=O)N2C(C(=O)[O-])=C(C[n+]3ccccc3)CS[C@H]12)c1csc(N)n1)C(=O)O [CAZ, Cefatazidime, reference compound] | 0.2 µg/mL (≈ 0.366 µM) | 0.1 µg/mL (≈ 0.183 µM) | 0.1 µg/mL (≈ 0.183 µM) |  |  |  |  |  |  |  | 0.2 µg/mL (≈ 0.366 µM) | 6.25 µg/mL (≈ 11.4 µM) | 1.56 µg/mL (≈ 2.85 µM)
